Experimental data from patent US20240025893A1, “PYRIMIDINE-AND NITROGEN-CONTAINING BICYCLIC COMPOUND” (Asahi Kasei Pharma Corporation, priority 2020, published 2024).

Experiments:
[1] = tested on: LPS-stimulated TNFα production in THP-1 cells; experiment: LPS-stimulated TNFα production inhibition test using human acute monocytic leukemia cell strain THP-1; assay type: cell-based; settings: Homo sapiens, LPS 2.5 ng/mL, average values
Procedure: By the THP-1 assay, influence of a test compound on the TNFα production induced by LPS stimulation can be evaluated. The THP-1 cells (ATCC, Cat. TIB-202) were inoculated on a 96-well plate at a density of 1×10^5 cells/160 μL/well, a test compound was added in a volume of 20 μL, and the plate was incubated at 37° C. for 1 hour in a 5% CO2 incubator. Then, LPS in a volume of 20 μL (final concentration 2.5 ng/mL, Sigma, Cat. L2630) was added, and the plate was further incubated for 4 hours. After the incubation, the plate was centrifuged, and 100 μL of the supernatant was taken from each well, and used for evaluation of the amount of TNFα using HTRF (Cisbio, Cat. 62TNFPEB). In the measurement of the amount of TNFα, the supernatant was diluted twice with the medium, and then added to wells of a 384-well plate in a volume of 10 μL, then anti-TNFα-cryptate (5 μL), and anti-TNFα-XL665 (5 μL) were added, and the plate was left standing overnight. The fluorescence intensity ratio for the wavelengths of 620 and 665 nm (620 nm/665 nm) was measured with a microplate reader, and the amount of TNFα in the supernatant was calculated by using a calibration curve. The TNFα production suppression ratio observed with no addition of LPS was defined to be 100%, the TNFα production suppression ratio observed with no addition of the test compound was defined to be 0%, and IC50 of the test compound was calculated by using the 4-parameter logistic model of the data analysis software XLfit (ID Business Solutions Ltd.).

human IRAK-4 = human IRAK-4 (Homo sapiens (Human), UniProt Q9NWZ3); experiment: Measurement of human IRAK-4 inhibitory activity (TR-FRET, peptide substrate phosphorylation, 10 μM ATP); assay type: biochemical; settings: 1 nM IRAK-4, 10 μM ATP, 23° C., 30 minutes; average values
Chain of human IRAK-4 (Q9NWZ3 whole entry): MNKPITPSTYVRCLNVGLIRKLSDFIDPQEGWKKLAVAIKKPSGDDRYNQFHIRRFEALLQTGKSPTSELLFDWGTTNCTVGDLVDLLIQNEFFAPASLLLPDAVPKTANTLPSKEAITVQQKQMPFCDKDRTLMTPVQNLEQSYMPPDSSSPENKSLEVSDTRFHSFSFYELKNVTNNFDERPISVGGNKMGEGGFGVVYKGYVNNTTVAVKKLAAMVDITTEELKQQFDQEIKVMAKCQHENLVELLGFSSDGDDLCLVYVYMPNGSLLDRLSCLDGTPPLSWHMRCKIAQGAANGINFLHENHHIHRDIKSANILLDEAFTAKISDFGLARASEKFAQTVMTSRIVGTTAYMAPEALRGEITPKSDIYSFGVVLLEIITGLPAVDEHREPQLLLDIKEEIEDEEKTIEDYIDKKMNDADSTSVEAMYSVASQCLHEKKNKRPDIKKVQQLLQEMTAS
Procedure: For the measurement of the activity of the human IRAK-4 (Invitrogen, Cat. PV3362), phosphorylation of the IRAK-4 peptide substrate (biotin-KKKKRFSFKKSFKC) by the enzyme in the presence of 10 μM ATP (Sigma-Aldrich, Cat. A7699) was measured by the TR-FRET method. The enzymatic reaction was performed in a reaction buffer containing 50 mM HEPES (pH 7.2), 1 mM DTT, 0.1 mM Na3VO4, 5 mM MgCl2, 1 mM MnCl2, and 0.1% bovine serum albumin. For the measurement of the IRAK-4 inhibitory activity, a test compound was added to the reaction buffer containing 1 nM IRAK-4, 0.5 μM peptide substrate, and 10 μM ATP, and the mixture was incubated at 23° C. for 30 minutes. Then, a detection solution containing an antibody labeled with europium cryptate (0.3 μg/mL, the antibody was prepared by using the IRAK-4 peptide substrate as the antigen), streptavidin-XL665 (2 μg/mL, CisBio, Cat. 610SAXLB), 50 mM HEPES (pH 7.2), 0.1% BSA, 120 mM KF, and 66.7 mM EDTA (all the concentrations of the reagents are final concentrations) was added to terminate the reaction, and then the mixture was further incubated at 23° C. for 60 minutes. Fluorescence intensity was measured at wavelengths of 665 nm and 620 nm with a microplate reader, and the enzymatic activity was calculated as the ratio of fluorescence intensities at 665 nm and 620 nm (665 nm/620 nm).

Row | SMILES | IC50 ([1]; THP-1, 4 h) [nM] | IC50 (human IRAK-4) [nM] | IC50 ([1]; 4 hours) [nM]
1 | O=C(Nc1nc2ccc(-c3cnc(CO[C@H]4CCC[C@@H]4O)nc3)cc2s1)C1CC(N2CC[C@H](F)C2)C1 (stereo partly shown) [b-02-02] | 195 | 2.79 | 
2 | O=C(Nc1nc2ccc(-c3cnc(CO[C@H]4CCC[C@@H]4O)nc3)cc2s1)C1CC(N2CCCOCC2)C1 (stereo partly shown) [b-02-03] | 166 | 2.53 | 
3 | O=C(Nc1nc2ccc(-c3cnc(CO[C@H]4CCC[C@@H]4O)nc3)cc2s1)C1CC(N2CCC(F)(F)CC2)C1 (stereo partly shown) [b-02-04] | 146 | 3.64 | 
4 | C[C@@H]1COCCN1C1CC(C(=O)Nc2nc3ccc(-c4cnc(CO[C@H]5CCC[C@@H]5O)nc4)cc3s2)C1 (stereo partly shown) [b-02-05] | 131 | 2.12 | 
5 | C[C@H]1COCCN1C1CC(C(=O)Nc2nc3ccc(-c4cnc(CO[C@H]5CCC[C@@H]5O)nc4)cc3s2)C1 (stereo partly shown) [b-02-06] | 66 | 1.34 | 
6 | C[C@H]1CN(C2CC(C(=O)Nc3nc4ccc(-c5cnc(CO[C@H]6CCC[C@@H]6O)nc5)cc4s3)C2)CCO1 (stereo partly shown) [b-02-07] | 164 | 2.28 | 
7 | C[C@@H]1CN(C2CC(C(=O)Nc3nc4ccc(-c5cnc(CO[C@H]6CCC[C@@H]6O)nc5)cc4s3)C2)CCO1 (stereo partly shown) [b-02-08] | 113 | 2.76 | 
8 | O=C(Nc1nc2ccc(-c3cnc(CO[C@H]4CCC[C@@H]4O)nc3)cc2s1)C1CC(N2CC3CC(C2)O3)C1 (stereo partly shown) [b-02-09] |  | 2.42 | 142
9 | O=C(Nc1nc2ccc(-c3cnc(CO[C@H]4CCC[C@@H]4O)nc3)cc2s1)C1CC(N2CCCC(F)(F)C2)C1 (stereo partly shown) [b-02-10] | 141 | 3.94 | 
10 | CC1(F)CN(C2CC(C(=O)Nc3nc4ccc(-c5cnc(CO[C@H]6CCC[C@@H]6O)nc5)cc4s3)C2)C1 (stereo partly shown) [b-02-45] | 200 |  | 
11 | O=C(Nc1nc2ccc(-c3cnc(CO[C@H]4CCC[C@@H]4O)nc3)cc2s1)C1CC(NC2CC(F)(F)C2)C1 (stereo partly shown) [b-02-64] | 164 |  | 
12 | CN(C1CC(C(=O)Nc2nc3ccc(-c4cnc(CO[C@H]5CCC[C@@H]5O)nc4)cc3s2)C1)C1(C#N)CC1 (stereo partly shown) [b-02-73] | 113 |  | 
13 | O=C(Nc1nc2ccc(-c3cnc(CO[C@H]4CCC[C@@H]4O)nc3)cc2s1)C1CC(N2CCCC3(COC3)C2)C1 (stereo partly shown) [b-02-75] | 186 |  | 
14 | C[C@H]1CN(S(C)(=O)=O)CCN1[C@H]1C[C@@H](C(=O)Nc2nc3ccc(-c4cnc(CO[C@H]5CCC[C@@H]5O)nc4)cc3s2)C1 [b-05-08] | 81 |  | 
15 | CCNC(=O)N1CCN([C@H]2C[C@@H](C(=O)Nc3nc4ccc(-c5cnc(CO[C@H]6CCC[C@@H]6O)nc5)cc4s3)C2)[C@@H](C)C1 [b-06-01] | 93 |  | 
16 | COc1c(-c2cnc(CO[C@H]3CCC[C@@H]3O)nc2)ccc2nc(NC(=O)[C@H]3C[C@@H]3C)sc12 [c-02-02] | 186 |  | 
17 | COc1c(-c2cnc(CO[C@H]3CCC[C@@H]3O)nc2)ccc2nc(NC(=O)[C@H]3C[C@H]3C)sc12 [c-02-03] | 229 |  | 
18 | COCC(=O)N1CCC2(CC1)CC(C(=O)Nc1nc3ccc(-c4cnc(CO[C@H]5CCC[C@@H]5O)nc4)cc3s1)C2 [d-03-02] | 111 |  | 
19 | O=C(Nc1nc2ccc(-c3cnc(CO[C@H]4CCC[C@@H]4O)nc3)cc2s1)C1CC2(CCN(C(=O)C3CC3)CC2)C1 [d-03-03] | 87 |  | 
20 | O=C(Nc1nc2ccc(-c3cnc(CO[C@H]4CCC[C@@H]4O)nc3)cc2s1)C1CC2(CCN(C(=O)c3ccccc3)CC2)C1 [d-03-04] | 194 |  | 
21 | O=C(Nc1nc2ccc(-c3cnc(CO[C@H]4CCC[C@@H]4O)nc3)cc2s1)[C@H]1C[C@@H](OCC2CC2)C1 [d-04-04] | 169 |  | 
22 | CC(C)(C)OC1CC(C(=O)Nc2cc3cc(-c4cnc(CO[C@H]5CCC[C@@H]5O)nc4)ccn3n2)C1 (stereo partly drawn) [e-03-01, 3-(tert-Butoxy)-N-(5-(2-((((1S,2S)-2-hydroxycyclopentyl)oxy)methyl)pyrimidin-5-yl)pyrazolo[1,5-a]pyridin-2-yl)cyclobutane-1-carboxamide] | 168 |  | 
